Source: patent publication US8552253B2, “Screening of drug for attention deficit hyperactive disorder by using GIT1 knock-out mice as a novel ADHD mouse model” (Korea Advanced Institute of Science and Technology, priority 2011, dated 2013)

Experiments:
Format in all cases: in vivo
normal mouse (wild type) = experiment: Open field test of normal mouse (control); conditions: peritoneal injection just before test, one time, amphetamine 4 mg/kg/day, methylphenidate 2 mg/kg/day, 60 minutes
Procedure: (§1) In order to observe hyperactivity of mice using the GIT1 knock-out mice of the present invention, an open field test was executed in a novel environment. A GIT1 knock-out mouse and a normal mouse (wild type) as a control, each mouse being aged 2 to 5 months, were prepared. An open space was prepared using a white box which is never exposed to the mice and has a dimension of 40-40-40 cm (width-length-height). After placing each mouse in the center of the open space and video shooting a distance of the mouse for 60 minutes, results thereof including, for example, a total distance, an average movement speed, a central space invasion rate, etc., were assayed through an activity analysis program. For analysis of behavior in the open space, amphetamine (4 mg/kg/day, one time) and methylphenidate (2 mg/kg/day, one time) used as ADHD protection drugs were administered through peritoneal injection just before placing the mouse therein, followed by immediately placing the mouse in the center of the open space.

GIT1 knock-out mouse [1] = experiment: Novel object recognition test of GIT1 knock-out mouse; conditions: peritoneal injection 4 mg/kg/day, 20 minutes before the sample phase, versus saline, FIG. 6C
Procedure: A novel object recognition test for assessment of object recognition and memory performance using the GIT1 knock-out mouse was performed in the same open space box as used in the open field test. The novel object recognition test included a sample phase and a test phase. During the sample phase, the mouse was allowed to detect the same two objects placed in an open space box for 10 minutes and, by video shooting the sample phase, times of observing both the objects by the mouse were recorded. As a result, it was found in FIG. 6A that a difference in object detection time between the normal mouse and the GIT1 knock-out mouse is not statistically significant. Further, one of the same two objects, for example, was replaced by a novel object not exposed to the mouse and, after 24 hours, a test period was proceeded. Such a test period was 10 minutes and a time of observing two objects by the mouse was measured during the test period. In this regard, if the nose end of the mouse contacts the object or the mouse heads for the object within 2 cm before the same, this was defined as the observation. For observing recovery of the object recognition and/or memory performance, the present inventive mouse was administered with amphetamine or saline through peritoneal injection at a dose of 4 mg/kg/day and placed in an open space box, 20 minutes before the sample phase.

GIT1 knock-out mouse [2] = experiment: EEG analysis of theta section waveform in the frontal lobe of GIT1 knock-out mouse; conditions: after administering amphetamine, compared to a control having saline, FIG. 7C
Procedure: A process of assaying an abnormal theta section waveform and a power spectrum density in the frontal lobe using the GIT1 knock-out mouse according to the present invention was executed after administering ketamine to a mouse through peritoneal injection at a dose of 150 mg/kg to anesthetize the mouse and fixing the head of the mouse to a stereotaxic instrument. EEG electrodes were inserted into both the right frontal lobe and the left frontal lobe. More particularly, a correct fixing position was set by calculating a correct coordinate having the front side of 2.8 mm and each lateral side of 0.8 mm with reference to the bregma, via the stereotaxic instrument. A grounding electrode was inserted into the occipital lobe. After inserting the electrodes and 1 week recovery period, the mouse was placed in an EEG chamber to measure a brain wave for 1 hour. EEG signals were amplified using a Grass model 7H polygraph (Grass Technologies) and digitalized at a sampling frequency of 2000 Hz using DIGIDATA 1320A (Molecular Devices), followed by acquisition of data using pClamp8.0 program (Axon Instruments) and analysis thereof.

GIT1 knock-out mouse [3] = experiment: Open field test of GIT1 knock-out mouse; conditions: peritoneal injection just before test, one time, amphetamine 4 mg/kg/day, methylphenidate 2 mg/kg/day, 60 minutes, FIGS. 3B and 3C
Procedure: as §1

SMILES	movement distance of the normal mouse in open space (normal mouse (wild type))	object recognition ability (novel object recognition) (GIT1 knock-out mouse [1])	abnormal theta waveform in the frontal lobe (EEG) (GIT1 knock-out mouse [2])	movement distance of the GIT1 knock-out mouse in open space (hyperactivity) (GIT1 knock-out mouse [3])
CC(N)Cc1ccccc1 (stereo not drawn) [amphetamine]	considerably long distance	can be recovered	favorably recovered	significant recovery
COC(=O)C(c1ccccc1)C1CCCCN1 (stereo not drawn) [methylphenidate]	considerably long distance	–	–	significant recovery
